{"source": "patent US20220054387A1", "about": "“COMPOSITION COMPRISING AT LEAST ONE GLYCOSYLATED FLAVONOID AND ITS USE IN COSMETICS OR DERMATOLOGY” (PURALLY, priority 2020, published 2022)", "key": {"[1]": {"tested_on": "IL-31", "test": "IL-31 release by keratinocytes exposed to benzo[a]pyrene and blue light (ELISA)", "assay_type": "cell-based, human", "experimental": "The cells used in this study are primary cultures of normal human keratinocytes (NHKs) extracted after skin surgery of a donor.\nThey were cultured in a complete KSFM environment: Keratinocyte-SFM (17005-31, Gibco) with L-Glutamine, supplemented with a recombinant human epidermal growth factor (EGFhr, 10450-013, Gibco), extract of bovine pituitary gland (BPE, 13028-014, Gibco) and 1% of streptomycin penicillin (15070-063, Gibco) at 37° C. in 5% CO2 atmosphere up until 80% confluence.\nThe keratinocytes cultured according to Example 1 are exposed either to benzo[a]pyrene (B[a]P) at 20 μμM, or to blue light (450 nm) at 40 J/cm^2 or to the combination of both at the same doses. A myricitrin treatment with amounts ranging from 10 μμM to 50 μμM is applied to cells that have previously received the B[a]P and blue light combination.\nAfter 24 hours' treatment, an assay of the interleukin 31 (IL-31) released by the cells is performed, via an immunoassay kit (ELISA.) The IL-31 assay was performed with the human IL-31 ELISA MAX™ Deluxe Set (445704, Biolegend.)"}, "[2]": {"tested_on": "normal human keratinocytes", "test": "Keratinocyte viability assay (XTT)", "assay_type": "cell-based", "conditions": "myricitrin 0.21 to 50 μμM, 24 hours", "experimental": "The cells used in this study are primary cultures of normal human keratinocytes (NHKs) extracted after skin surgery of a donor. They were cultured in a complete KSFM environment: Keratinocyte-SFM (17005-31, Gibco) with L-Glutamine, supplemented with a recombinant human epidermal growth factor (EGFhr, 10450-013, Gibco), extract of bovine pituitary gland (BPE, 13028-014, Gibco) and 1% of streptomycin penicillin (15070-063, Gibco) at 37° C. in 5% CO2 atmosphere up until 80% confluence. On D0, normal human keratinocytes are incubated in 96-well plates in a culture medium. The cells are left to stabilize for 24 hours at 37° C. in 5% CO2 atmosphere, as described in Example 1. […] The NHK viability was assessed using a Cell Proliferation Kit II (XTT) (11465015001, Roche) in accordance with the manufacturer's instructions. The XTT system, a colorimetric method, is a test used to quantify mitochondrial activity. […] The formazan derivate is measured by spectrophotometry (at 450 nm with 650 nm of reference.) For each condition, optical density data averages (OD, absorbance) are calculated. The viability of the treated cells is expressed as a percentage of untreated control batch: a treatment that reduces the viability of the cells to below the comparative limit of 80% of mitochondrial activity in the untreated control batch, is considered cytotoxic for the cells. […]"}}, "data": [{"smiles": "c1ccc2c(c1)cc1ccc3cccc4ccc2c1c34", "note": "[benzo[a]pyrene, reference compound]", "values": [{"measurement": "increase in IL-31 by the keratinocytes", "setting": "[1]; benzo[a]pyrene 20 μμM combined with blue light (450 nm) 40 J/cm^2", "value": "+111%"}]}, {"smiles": "C[C@@H]1O[C@@H](Oc2c(-c3cc(O)c(O)c(O)c3)oc3cc(O)cc(O)c3c2=O)[C@H](O)[C@H](O)[C@H]1O", "note": "[myricitrin, 5,7-dihydroxy-3-[(2S,3R,4R,5R,6S)-3,4,5-trihydroxy-6-methyloxan-2-yl]oxy-2-(3,4,5-trihydroxyphenyl)chromen-4-one]", "values": [{"measurement": "decrease in the production of IL-31", "setting": "[1]; myricitrin as of 20 μM, cells pre-treated with 20 μM of B[a]P and 40 J/cm^2 of blue light, 24 hours' treatment", "value": "−100", "unit": "%"}, {"measurement": "toxic effect on keratinocytes (cell viability, XTT)", "setting": "[2]", "value": "no toxic effect"}]}]}
